Data as given in EPA's ToxValDB 9.5 (doi:10.2903/j.efsa.2013.3052).

Assays:
Mus musculus = details: subchronic; duration: 90 days; oral; diet; organ weight
Folsomia candida = details: chronic/long-term; duration: 28 days; reproduction
Hypoaspis aculeifer = details: chronic/long-term; duration: 14 days; reproduction
Bibionidae = details: chronic/long-term; duration: 28 days; other
Cyprinodon variegatus = details: acute; duration: 96 hours; mortality
Anas platyrhynchos = details: short-term; oral; feed; mortality
Pimephales promelas = details: chronic/long-term; duration: 33 days; behavior
Neomysis kadiakensis = details: acute; duration: 96 hours; mortality
Daphnia magna = details: chronic/long-term; duration: 21 days; reproduction
Apis mellifera = details: acute, duration: 48 hours, mortality

Compound: O=C(NCCc1ncc(C(F)(F)F)cc1Cl)c1ccccc1C(F)(F)F [Fluopyram]
- NOAEL (Mus musculus): 5.4 mg/kg-day
- NOAEL (Rattus norvegicus; acute, F, neurology): 50 mg/kg-day
- LD50 (Rattus norvegicus; acute, oral, mortality): > 2000 mg/kg-day
- NOAEL (Rattus norvegicus; chronic): 14.5 mg/kg-day
- NOAEL (Rattus norvegicus; chronic, duration: 2 years, oral, diet, body weight): 1.2 mg/kg-day
- NOEC (Folsomia candida): 104 mg/kg
- NOEC (Hypoaspis aculeifer): > 415 mg/kg
- NOEC (Bibionidae): 1.39 mg/L
- LC50 (Cyprinodon variegatus): > 0.98 µg/mL
- LC50 (Anas platyrhynchos): > 1640 mg/kg-day
- NOEC (Pimephales promelas): 0.135 mg/L
- LC50 (Neomysis kadiakensis): > 0.5 µg/mL
- LC50 (Tagia sp.; acute, duration: 14 days, mortality): > 1000 mg/kg
- NOEC (Tagia sp.; chronic/long-term, duration: 56 days, reproduction): 11.4 mg/kg
- NOEC (Daphnia magna): 1.25 mg/L
- LD50 (Colinus virginianus; acute, oral, mortality): > 2000 mg/kg-day
- NOAEL (Colinus virginianus; reproduction developmental): 7.2 mg/kg-day
- LD50 (Apis mellifera; dermal): > 100 µg/piece
- LD50 (Apis mellifera; oral, unspecified): > 102 µg/piece
